The values that follow come from ChEMBL document CHEMBL4665643 (Bioorg Med Chem Lett, 2019).

Series [1] can be described thus: Metabolic stability in human liver microsomes assessed as intrinsic clearance at 1 uM measured upto 60 mins by LC-MS/MS analysis. Format: ADME, Microsome. The note with it: read-out: CLH.
In series [2] the target is Tyrosine-protein kinase JAK2 (Homo sapiens, UniProt O60674).
Description: Inhibition of recombinant human JAK2 (812 to 1132 residues) expressed in insect cells using Y1-B as substrate incubated for 30 mins by microfluidic mobility shift assay
Series [3] concerns the target T1, Tyrosine-protein kinase JAK1 (Homo sapiens, UniProt P23458). Nature of the series: biochemical.
Description: Inhibition of recombinant human JAK1 (854 to 1154 residues) expressed in insect cells using Y1-B as substrate incubated for 30 mins by microfluidic mobility shift assay
The target in series [4] is T1, Tyrosine-protein kinase JAK1.
The target of series [5] is Leucine-rich repeat serine/threonine-protein kinase 2 (Homo sapiens, UniProt Q5S007). The series can be described thus: Inhibition of recombinant human GST-tagged LRRK2 (970 to 2527 residues) expressed in baculovirus expression system using LRRKtide as substrate incubated for 60 mins by Adapta assay.
Chain of Leucine-rich repeat serine/threonine-protein kinase 2 (Q5S007 whole entry, the tested form may be a part): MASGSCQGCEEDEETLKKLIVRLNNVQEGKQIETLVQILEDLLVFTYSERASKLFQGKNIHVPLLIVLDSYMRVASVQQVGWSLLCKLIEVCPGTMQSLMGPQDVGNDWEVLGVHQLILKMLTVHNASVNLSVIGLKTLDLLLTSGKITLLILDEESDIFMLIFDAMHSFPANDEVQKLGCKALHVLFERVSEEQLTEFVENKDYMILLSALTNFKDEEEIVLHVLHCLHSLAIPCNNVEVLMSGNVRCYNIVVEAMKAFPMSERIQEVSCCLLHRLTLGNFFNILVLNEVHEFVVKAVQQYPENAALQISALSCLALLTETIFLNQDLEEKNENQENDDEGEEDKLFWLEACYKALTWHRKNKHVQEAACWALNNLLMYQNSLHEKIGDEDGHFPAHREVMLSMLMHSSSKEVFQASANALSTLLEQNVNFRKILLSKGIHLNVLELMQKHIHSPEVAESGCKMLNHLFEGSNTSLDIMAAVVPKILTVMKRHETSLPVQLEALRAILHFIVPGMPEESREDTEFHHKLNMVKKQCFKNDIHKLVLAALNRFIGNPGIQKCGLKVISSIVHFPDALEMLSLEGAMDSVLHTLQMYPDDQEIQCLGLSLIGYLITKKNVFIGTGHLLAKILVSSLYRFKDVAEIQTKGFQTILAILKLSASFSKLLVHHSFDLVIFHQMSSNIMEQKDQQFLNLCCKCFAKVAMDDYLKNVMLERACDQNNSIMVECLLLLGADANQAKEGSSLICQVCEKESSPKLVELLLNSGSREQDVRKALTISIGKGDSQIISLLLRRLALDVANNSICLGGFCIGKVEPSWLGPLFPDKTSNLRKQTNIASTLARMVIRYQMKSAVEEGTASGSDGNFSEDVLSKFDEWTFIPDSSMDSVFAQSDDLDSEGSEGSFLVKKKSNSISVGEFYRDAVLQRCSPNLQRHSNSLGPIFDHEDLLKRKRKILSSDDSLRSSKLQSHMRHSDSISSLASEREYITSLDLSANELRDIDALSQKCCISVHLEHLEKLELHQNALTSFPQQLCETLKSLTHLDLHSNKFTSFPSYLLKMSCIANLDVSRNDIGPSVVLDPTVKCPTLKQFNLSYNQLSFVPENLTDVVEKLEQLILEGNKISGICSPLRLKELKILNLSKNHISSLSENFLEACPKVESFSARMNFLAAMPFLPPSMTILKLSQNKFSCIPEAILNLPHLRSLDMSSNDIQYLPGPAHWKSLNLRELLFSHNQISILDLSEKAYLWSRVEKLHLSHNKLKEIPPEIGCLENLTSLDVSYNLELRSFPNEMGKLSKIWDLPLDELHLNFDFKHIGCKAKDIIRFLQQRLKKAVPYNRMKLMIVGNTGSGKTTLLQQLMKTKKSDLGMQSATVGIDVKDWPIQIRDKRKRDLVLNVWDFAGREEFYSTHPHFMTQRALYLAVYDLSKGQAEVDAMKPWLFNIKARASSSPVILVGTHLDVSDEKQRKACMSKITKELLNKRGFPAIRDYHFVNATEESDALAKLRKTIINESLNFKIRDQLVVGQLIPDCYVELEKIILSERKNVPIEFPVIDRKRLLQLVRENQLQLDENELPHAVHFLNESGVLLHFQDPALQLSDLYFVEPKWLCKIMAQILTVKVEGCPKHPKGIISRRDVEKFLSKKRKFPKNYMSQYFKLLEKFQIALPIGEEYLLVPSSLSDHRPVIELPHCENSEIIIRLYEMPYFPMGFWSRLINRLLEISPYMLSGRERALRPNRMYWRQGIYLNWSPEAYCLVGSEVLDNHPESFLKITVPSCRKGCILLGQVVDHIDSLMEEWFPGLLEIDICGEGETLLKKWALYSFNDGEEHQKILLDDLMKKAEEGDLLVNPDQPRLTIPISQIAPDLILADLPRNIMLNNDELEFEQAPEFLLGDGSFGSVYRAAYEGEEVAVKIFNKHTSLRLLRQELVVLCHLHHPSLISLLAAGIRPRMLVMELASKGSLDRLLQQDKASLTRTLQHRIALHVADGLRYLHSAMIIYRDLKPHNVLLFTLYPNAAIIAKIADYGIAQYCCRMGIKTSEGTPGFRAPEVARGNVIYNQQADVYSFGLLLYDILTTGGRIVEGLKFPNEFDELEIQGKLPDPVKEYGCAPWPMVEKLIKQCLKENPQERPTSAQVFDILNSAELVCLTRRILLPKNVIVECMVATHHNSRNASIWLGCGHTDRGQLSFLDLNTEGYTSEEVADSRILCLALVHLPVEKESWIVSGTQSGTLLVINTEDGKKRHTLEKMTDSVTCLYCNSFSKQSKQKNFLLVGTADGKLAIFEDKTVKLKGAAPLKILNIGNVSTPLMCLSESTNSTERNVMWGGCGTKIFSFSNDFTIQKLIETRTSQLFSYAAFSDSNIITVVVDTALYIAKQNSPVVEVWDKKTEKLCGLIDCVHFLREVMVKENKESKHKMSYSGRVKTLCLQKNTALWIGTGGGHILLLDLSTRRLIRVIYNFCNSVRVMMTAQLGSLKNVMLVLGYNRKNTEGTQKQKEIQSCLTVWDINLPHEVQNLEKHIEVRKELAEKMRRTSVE
Series [6] can be described thus: in vitro. As to conditions: dog, MDCK.
Description: Efflux ratio of apparent permeability basolateral to apical over apical to basolateral side in MDCK cells at 10 uM incubated upto 180 mins by LC/MS-MS analysis
Another series addresses LRRK2 (Homo sapiens, UniProt Q5S007). Nature of the series: Inhibition of recombinant human GST-tagged LRRK2 (970 to 2527 residues) expressed in baculovirus expression system using LRRKtide as substrate at 0.1 uM incubated for 60 mins by Adapta assay relative to control. The note with it: probe LRRKtide.
The nature of series [7]: in vitro. The note with it: dog, MDCK. This is another data set of the same source.
Description: Apparent permeability across apical to basolateral side in MDCK cells at 10 uM incubated upto 180 mins by LC/MS-MS analysis
The nature of series [8]: Lipophilicity, logD of compound. The series is classed as physicochemical. The note with it: octanol/water.
A further series has as its target Janus Kinase (JAK) (Homo sapiens, UniProt P52333+P23458+O60674+P29597). As to conditions: beas-2b.

T1 sequence (P23458 whole entry): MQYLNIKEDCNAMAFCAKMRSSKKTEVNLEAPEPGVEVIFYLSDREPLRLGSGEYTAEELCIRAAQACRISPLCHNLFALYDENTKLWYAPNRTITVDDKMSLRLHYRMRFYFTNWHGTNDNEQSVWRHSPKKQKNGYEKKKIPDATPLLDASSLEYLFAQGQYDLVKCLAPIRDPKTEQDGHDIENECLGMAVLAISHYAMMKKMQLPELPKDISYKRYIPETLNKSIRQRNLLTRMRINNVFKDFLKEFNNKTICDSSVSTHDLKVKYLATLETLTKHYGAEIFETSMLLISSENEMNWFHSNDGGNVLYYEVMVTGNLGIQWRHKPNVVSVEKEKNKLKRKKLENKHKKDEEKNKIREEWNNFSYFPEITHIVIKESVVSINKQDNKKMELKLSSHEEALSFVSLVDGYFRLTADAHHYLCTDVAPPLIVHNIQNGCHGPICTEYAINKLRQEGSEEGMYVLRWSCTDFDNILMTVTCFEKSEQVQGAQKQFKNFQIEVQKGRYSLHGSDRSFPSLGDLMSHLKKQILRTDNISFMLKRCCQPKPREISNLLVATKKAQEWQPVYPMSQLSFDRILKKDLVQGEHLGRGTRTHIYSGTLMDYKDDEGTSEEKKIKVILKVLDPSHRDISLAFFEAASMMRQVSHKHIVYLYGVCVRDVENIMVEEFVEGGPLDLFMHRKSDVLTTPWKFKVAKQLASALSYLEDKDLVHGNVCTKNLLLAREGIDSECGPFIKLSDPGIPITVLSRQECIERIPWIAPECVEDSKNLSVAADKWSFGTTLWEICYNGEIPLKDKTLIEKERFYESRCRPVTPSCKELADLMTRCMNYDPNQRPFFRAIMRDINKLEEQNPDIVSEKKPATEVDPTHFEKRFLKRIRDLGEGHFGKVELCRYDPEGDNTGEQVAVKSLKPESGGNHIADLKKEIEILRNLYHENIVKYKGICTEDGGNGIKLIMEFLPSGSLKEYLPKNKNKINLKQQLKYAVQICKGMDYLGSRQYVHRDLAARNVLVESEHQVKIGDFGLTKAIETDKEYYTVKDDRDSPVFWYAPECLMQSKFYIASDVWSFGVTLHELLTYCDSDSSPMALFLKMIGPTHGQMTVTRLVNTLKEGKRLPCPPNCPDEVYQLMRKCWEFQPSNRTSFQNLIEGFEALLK
Chain of Tyrosine-protein kinase JAK2 (O60674 whole entry): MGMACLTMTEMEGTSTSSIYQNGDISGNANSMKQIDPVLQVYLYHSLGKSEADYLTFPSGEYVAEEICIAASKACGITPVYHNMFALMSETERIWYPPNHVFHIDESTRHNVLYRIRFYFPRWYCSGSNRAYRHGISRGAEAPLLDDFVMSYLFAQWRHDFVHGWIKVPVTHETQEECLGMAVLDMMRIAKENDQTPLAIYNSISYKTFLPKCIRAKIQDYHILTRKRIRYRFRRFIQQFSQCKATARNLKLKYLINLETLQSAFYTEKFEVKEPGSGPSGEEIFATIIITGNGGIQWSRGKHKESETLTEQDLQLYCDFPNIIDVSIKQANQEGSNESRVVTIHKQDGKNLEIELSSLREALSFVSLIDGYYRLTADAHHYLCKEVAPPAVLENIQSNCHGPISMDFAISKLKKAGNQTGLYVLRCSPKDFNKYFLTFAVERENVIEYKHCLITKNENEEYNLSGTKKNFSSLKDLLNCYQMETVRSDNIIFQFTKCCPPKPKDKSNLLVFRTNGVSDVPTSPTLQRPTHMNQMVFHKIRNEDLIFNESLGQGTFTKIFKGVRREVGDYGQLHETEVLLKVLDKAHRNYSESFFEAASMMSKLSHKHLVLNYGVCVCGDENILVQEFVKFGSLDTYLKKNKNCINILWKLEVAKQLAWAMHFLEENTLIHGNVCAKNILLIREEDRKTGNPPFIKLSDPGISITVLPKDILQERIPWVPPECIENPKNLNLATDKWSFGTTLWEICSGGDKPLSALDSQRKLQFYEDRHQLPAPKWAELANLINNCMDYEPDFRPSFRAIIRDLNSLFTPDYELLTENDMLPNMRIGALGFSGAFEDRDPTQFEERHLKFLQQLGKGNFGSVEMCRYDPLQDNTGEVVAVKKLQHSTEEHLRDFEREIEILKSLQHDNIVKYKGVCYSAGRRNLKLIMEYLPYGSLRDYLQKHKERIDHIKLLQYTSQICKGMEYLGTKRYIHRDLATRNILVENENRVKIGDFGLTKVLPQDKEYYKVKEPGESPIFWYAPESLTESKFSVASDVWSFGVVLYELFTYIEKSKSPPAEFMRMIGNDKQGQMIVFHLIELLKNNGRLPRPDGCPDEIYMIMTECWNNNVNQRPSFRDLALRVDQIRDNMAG
Chain of LRRK2 (Q5S007 whole entry, the tested form may be a part): as the sequence (Q5S007 whole entry, the tested form may be a part) above
Description for Janus Kinase (JAK): Inhibition of JAK in human BEAS-2B cells assessed as reduction in IL13-induced STAT6 phosphorylation incubated for 1 hr followed by IL13 addition and measured after 15 mins by immunofluorescence assay

In general, Ki refers to the dissociation constant of the complex between target and ligand, obtained from inhibition or displacement. Read a low Ki as higher affinity. A word on the IC50: it is the concentration needed to halve the response being measured. As a reminder, the efflux ratio is the permeability from basolateral to apical divided by that in the opposite direction, in the common usage. One may read the inhibition as the share of the control response that was lost under treatment. As a reminder, the Papp A→B is the apparent permeability from the apical to the basolateral side of a cell layer. Read a high Papp A→B as fast passage. As usually defined, the logD is the decadic logarithm of the distribution of all forms, ionised or not, between an organic phase and buffer at a given pH. The low end stands for lower lipophilicity, the high end for higher lipophilicity. `O=C(Nc1c[nH]nc1-c1cc(Cl)ccc1OC(F)F)c1cncc2c[nH]nc12`: in [1], the CLint scaled at 1 µM is 15 mL/min/kg. The Ki came to 0.49 nM in series [2] and 0.56 nM in series [3]. For the same compound, the IC50 in [4] stood at 1.9 nM; in [5], 79 nM; at Janus Kinase (JAK), 18 nM. Also, in the series “in vitro [6]”, the efflux ratio at 3 h, 10 µM is 1.9. Moreover, the inhibition at 1 h, 0.1 µM at LRRK2 amounted to 52%. For the same compound, in the series “in vitro [7]”, the Papp A→B at 3 h, 10 µM was 9.5 ×10⁻⁶ cm/s. In [8], this compound showed a logD of 2.7. For the same compound, the Ratio IC50 in the series filed under Homo sapiens was found to be 41.
